Test results published in ChEMBL document CHEMBL1201862, “PubChem BioAssay data set” (2004).
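Compound exposure: 48 hours, 5 concentrations, 96-well plates. Here, GI50 denotes the concentration required for 50% inhibition of growth.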 Active and inactive are the calls of the source. No stated cut-off is given here; in the data, active = GI50 up to about 1.1 µM and inactive = higher.

What was measured:
Assay in all cases: inhibition of tumour cell growth, NCI panel, 48 h
[1] = tested on: A549
[2] = tested on: ACHN
[3] = tested on: COLO 205
[4] = tested on: DU-145
[5] = tested on: EKVX
[6] = tested on: HCT-116
[7] = tested on: HCT-15
[8] = tested on: HOP-62
[9] = tested on: HOP-92
[10] = tested on: HT-29
[11] = tested on: Hs-578T
[12] = tested on: IGROV-1
[13] = tested on: LOX IMVI
[14] = tested on: M14
[15] = tested on: MDA-MB-231
[16] = tested on: MDA-N
[17] = tested on: MOLT-4
[18] = tested on: Malme-3M
[19] = tested on: NCI-H460
[20] = tested on: NCI-H522
[21] = tested on: NCI/ADR-RES
[22] = tested on: OVCAR-3
[23] = tested on: OVCAR-4
[24] = tested on: OVCAR-8
[25] = tested on: PC-3
[26] = tested on: SF-268
[27] = tested on: SF-295
[28] = tested on: SK-MEL-2
[29] = tested on: SK-MEL-5
[30] = tested on: SK-OV-3
[31] = tested on: SN12C
[32] = tested on: SNB-75
[33] = tested on: SR
[34] = tested on: SW-620
[35] = tested on: T47D
[36] = tested on: UACC-257
[37] = tested on: UACC-62
[38] = tested on: 786-0
[39] = tested on: CAKI-1
[40] = tested on: CCRF-CEM
[41] = tested on: HCC 2998
[42] = tested on: HL-60
[43] = tested on: K562
[44] = tested on: KM12
[45] = tested on: MCF7
[46] = tested on: NCI-H23
[47] = tested on: RPMI-8226
[48] = tested on: RXF 393
[49] = tested on: SK-MEL-28
[50] = tested on: TK-10
[51] = tested on: A498
[52] = tested on: MDA-MB-435
[53] = tested on: NCI-H226
[54] = tested on: OVCAR-5
[55] = tested on: SF-539
[56] = tested on: SNB-19
[57] = tested on: U-251
[58] = tested on: UO-31

CC(C)c1cc(C(C)C)c(B(c2ccccc2)c2ccccc2)c(C(C)C)c1B(c1ccccc1)c1ccccc1
GI50 [1]: > 100 µM (inactive)
GI50 [2]: > 100 µM (inactive)
GI50 [3]: > 100 µM (inactive)
GI50 [4]: > 100 µM (inactive)
GI50 [5]: > 100 µM (inactive)
GI50 [6]: > 100 µM (inactive)
GI50 [7]: > 100 µM
GI50 [8]: > 100 µM (inactive)
GI50 [9]: > 100 µM (inactive)
GI50 [10]: > 100 µM (inactive)
GI50 [11]: > 100 µM (inactive)
GI50 [12]: > 100 µM (inactive)
GI50 [13]: > 100 µM (inactive)
GI50 [14]: > 100 µM (inactive)
GI50 [15]: > 100 µM (inactive)
GI50 [16]: > 100 µM (inactive)
GI50 [17]: > 100 µM (inactive)
GI50 [18]: > 100 µM (inactive)
GI50 [19]: > 100 µM (inactive)
GI50 [20]: > 100 µM (inactive)
GI50 [21]: > 100 µM (inactive)
GI50 [22]: > 100 µM (inactive)
GI50 [23]: > 100 µM (inactive)
GI50 [24]: > 100 µM (inactive)
GI50 [25]: > 100 µM (inactive)
GI50 [26]: > 100 µM (inactive)
GI50 [27]: > 100 µM (inactive)
GI50 [28]: > 100 µM (inactive)
GI50 [29]: > 100 µM (inactive)
GI50 [30]: > 100 µM (inactive)
GI50 [31]: > 100 µM (inactive)
GI50 [32]: > 100 µM (inactive)
GI50 [33]: > 100 µM (inactive)
GI50 [34]: > 100 µM (inactive)
GI50 [35]: > 100 µM (inactive)
GI50 [36]: > 100 µM (inactive)
GI50 [37]: > 100 µM (inactive)

CC(=O)OC[C@]12CCC3[C@@]4(C)CCCC(C)(C)C4CC[C@@]3(C)C1CC(C1=CC(=O)OC1O)O2 (stereo not given in full)
GI50 [38]: 0.219 µM (active)
GI50 [1]: 1.85 µM (inactive)
GI50 [39]: 1.72 µM (inactive)
GI50 [40]: 0.271 µM (active)
GI50 [3]: 2.25 µM (inactive)
GI50 [4]: 4.07 µM (inactive)
GI50 [5]: 2.44 µM (inactive)
GI50 [41]: 1.47 µM (inactive)
GI50 [7]: 0.516 µM
GI50 [42]: 0.428 µM (active)
GI50 [8]: 1.9 µM (inactive)
GI50 [10]: 0.692 µM (active)
GI50 [12]: 1.19 µM (inactive)
GI50 [43]: 0.425 µM (active)
GI50 [44]: 1.68 µM (inactive)
GI50 [14]: 1.5 µM (inactive)
GI50 [45]: 0.726 µM (active)
GI50 [15]: 1.26 µM (inactive)
GI50 [16]: 1.16 µM (inactive)
GI50 [17]: 0.252 µM (active)
GI50 [46]: 1.39 µM (inactive)
GI50 [24]: 0.962 µM (active)
GI50 [25]: 1.32 µM (inactive)
GI50 [47]: 0.275 µM (active)
GI50 [48]: 0.382 µM (active)
GI50 [26]: 1.44 µM (inactive)
GI50 [49]: 0.512 µM (active)
GI50 [29]: 1.44 µM (inactive)
GI50 [30]: 1.87 µM (inactive)
GI50 [32]: 1.8 µM (inactive)
GI50 [33]: 0.259 µM (active)
GI50 [34]: 0.375 µM (active)
GI50 [35]: 1.32 µM (inactive)
GI50 [50]: 1.75 µM (inactive)
GI50 [37]: 1.53 µM (inactive)

N#CC1(C#N)C2C=CC(C3CC=CC32)C1(C#N)C#N (stereo not given)
GI50 [38]: 1.79 µM (inactive)
GI50 [51]: 9.84 µM (inactive)
GI50 [1]: 10.7 µM (inactive)
GI50 [2]: 5.12 µM (inactive)
GI50 [39]: 2.08 µM (inactive)
GI50 [40]: 1.27 µM (inactive)
GI50 [3]: 2.07 µM (inactive)
GI50 [4]: 9.55 µM (inactive)
GI50 [5]: 12.3 µM (inactive)
GI50 [41]: > 50 µM (inactive)
GI50 [6]: 1.93 µM (inactive)
GI50 [7]: 1.98 µM
GI50 [42]: 1.12 µM (inactive)
GI50 [8]: 12.9 µM (inactive)
GI50 [9]: 4.27 µM (inactive)
GI50 [10]: 9.71 µM (inactive)
GI50 [11]: 17.9 µM (inactive)
GI50 [12]: 9.33 µM (inactive)
GI50 [43]: 2.4 µM (inactive)
GI50 [44]: > 10 µM (inactive)
GI50 [13]: 8.59 µM (inactive)
GI50 [14]: 2.01 µM (inactive)
GI50 [45]: 6.52 µM (inactive)
GI50 [15]: 9.79 µM (inactive)
GI50 [52]: 7.16 µM (inactive)
GI50 [17]: 1.48 µM (inactive)
GI50 [18]: 2.79 µM (inactive)
GI50 [53]: > 50 µM (inactive)
GI50 [46]: 8.32 µM (inactive)
GI50 [19]: > 50 µM (inactive)
GI50 [20]: 1.22 µM (inactive)
GI50 [21]: 12.9 µM (inactive)
GI50 [22]: 2.45 µM (inactive)
GI50 [23]: 4.01 µM (inactive)
GI50 [54]: 8.39 µM (inactive)
GI50 [24]: 4.72 µM (inactive)
GI50 [25]: 8.59 µM (inactive)
GI50 [47]: 2.35 µM (inactive)
GI50 [48]: 5.16 µM (inactive)
GI50 [26]: 11.2 µM (inactive)
GI50 [27]: 21.5 µM (inactive)
GI50 [55]: 9.66 µM (inactive)
GI50 [49]: 10.9 µM (inactive)
GI50 [28]: 13.1 µM (inactive)
GI50 [29]: 7.73 µM (inactive)
GI50 [30]: 45 µM (inactive)
GI50 [31]: 10.4 µM (inactive)
GI50 [56]: > 50 µM (inactive)
GI50 [32]: > 10 µM (inactive)
GI50 [33]: 2.29 µM (inactive)
GI50 [34]: 2.13 µM (inactive)
GI50 [35]: 3.38 µM (inactive)
GI50 [50]: 2 µM (inactive)
GI50 [57]: 10.4 µM (inactive)
GI50 [36]: 12.7 µM (inactive)
GI50 [37]: 8.77 µM (inactive)
GI50 [58]: 2.17 µM (inactive)

CC(=O)O/N=C/c1c2ccccc2cc2ccccc12
GI50 [51]: 24.9 µM (inactive)
GI50 [1]: 47.9 µM (inactive)
GI50 [2]: 23.8 µM (inactive)
GI50 [39]: 82.4 µM (inactive)
GI50 [40]: > 100 µM (inactive)
GI50 [3]: > 100 µM (inactive)
GI50 [4]: > 100 µM (inactive)
GI50 [5]: 27.5 µM (inactive)
GI50 [6]: 41.6 µM (inactive)
GI50 [7]: 56.1 µM
GI50 [42]: > 100 µM (inactive)
GI50 [8]: 30 µM (inactive)
GI50 [9]: > 100 µM (inactive)
GI50 [10]: 57.7 µM (inactive)
GI50 [11]: 67.1 µM (inactive)
GI50 [43]: 85.7 µM (inactive)
GI50 [44]: 61.8 µM (inactive)
GI50 [13]: > 100 µM (inactive)
GI50 [14]: > 100 µM (inactive)
GI50 [45]: 78.2 µM (inactive)
GI50 [15]: 20.9 µM (inactive)
GI50 [52]: 38 µM (inactive)
GI50 [17]: > 100 µM (inactive)
GI50 [18]: 47 µM (inactive)
GI50 [53]: 46.9 µM (inactive)
GI50 [46]: 76.6 µM (inactive)
GI50 [19]: 51.8 µM (inactive)
GI50 [21]: 56.8 µM (inactive)
GI50 [22]: > 100 µM (inactive)
GI50 [54]: > 100 µM (inactive)
GI50 [24]: 19.1 µM (inactive)
GI50 [25]: > 100 µM (inactive)
GI50 [47]: 51.6 µM (inactive)
GI50 [48]: 21.7 µM (inactive)
GI50 [26]: 61.1 µM (inactive)
GI50 [27]: 47.4 µM (inactive)
GI50 [55]: 51.1 µM (inactive)
GI50 [49]: 89.3 µM (inactive)
GI50 [29]: 58.9 µM (inactive)
GI50 [30]: 22.2 µM (inactive)
GI50 [31]: 65.3 µM (inactive)
GI50 [56]: 50.5 µM (inactive)
GI50 [32]: 22.1 µM (inactive)
GI50 [33]: 28 µM (inactive)
GI50 [34]: 50.8 µM (inactive)
GI50 [35]: 81.7 µM (inactive)
GI50 [50]: 83 µM (inactive)
GI50 [57]: 45.6 µM (inactive)
GI50 [36]: > 100 µM (inactive)
GI50 [37]: 40.9 µM (inactive)
GI50 [58]: 36.2 µM (inactive)
